Measured values from paper PMC10331583, “Control of fibrosis with enhanced safety via asymmetric inhibition of prolyl‐tRNA synthetase 1” (EMBO Molecular Medicine, 2023).
Where “and” joins values, the source holds several entries; their conditions need not be identical. Equal values may be shown once. Read-outs that look alike come from different tables or passages of the source.

How the values were obtained:
WI‐26 VA4 cells [1] = test: Puromycin incorporation assay; assay type: cell-based, human; conditions: log(inhibitor) vs. response, variable slope (four parameters); concentration in nM
Procedure, shortened: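 WI‐26 VA4 cell lysates prepared in carbonate-bicarbonate buffer with protease inhibitor; 400 ng protein coated on ELISA plates 18 h at 4°C. Puromycin incorporated into proteins detected by antibody ELISA, absorbance 450 nm with 620 nm reference; outlier values excluded based on replicates and adjacent concentrations.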

[2] = CellTiter‐Glo assay (cytotoxicity); conditions: human, WI-26 VA4 cells
WI‐26 VA4 cells [3] = test: CellTiter‐Glo assay (cytotoxicity)
[4] = tested on: TNT Quick Coupled Transcription/Translation System (luciferase synthesis); assay type: biochemical
[5] = log(inhibitor) vs. response, variable slope (four parameters), concentration in nM

For `O[C@H]1CCCN[C@@H]1CCCn1cnc2c(Cl)c(Cl)ccc21` [DWN12088], the “Puromycin, LogIC50 (best-fit value)” value (WI‐26 VA4 cells [1]) was 4.754, the CC50 at 72 h ([2]; CC50 (CellTiter-Glo), 72 h (Fig 5B)) was 20.3 µM and the CC50 at 72 h ([2]; CC50, 72 h (Fig 1B)) was 20.8 µM. For the same molecule, the “CC50 fold versus HF” value (WI‐26 VA4 cells [3]; Fig 1B) was ~ 397 fold, the activity at 0.01 µM (WI‐26 VA4 cells [3]; Homo sapiens, WI26VA4, read-out: CellTiter-Glo % of control, 10 nM, Experiment #1, replicates) was 107% and the activity at 0.01 µM (WI‐26 VA4 cells [3]; Homo sapiens, WI26VA4, read-out: CellTiter-Glo % of control, 10 nM, Experiment #2, replicates) was 105%. For the same molecule, the activity at 0.03 µM (WI‐26 VA4 cells [3]; Homo sapiens, WI26VA4, read-out: CellTiter-Glo % of control, 30 nM, Experiment #1, replicates) was 95.8%, the activity at 0.03 µM (WI‐26 VA4 cells [3]; Homo sapiens, WI26VA4, read-out: CellTiter-Glo % of control, 30 nM, Experiment #2, replicates) was 108% and the activity at 0.1 µM (WI‐26 VA4 cells [3]; Homo sapiens, WI26VA4, read-out: CellTiter-Glo % of control, 100 nM, Experiment #1, replicates) was 107%. The activity at 0.1 µM (WI‐26 VA4 cells [3]; Homo sapiens, WI26VA4, read-out: CellTiter-Glo % of control, 100 nM, Experiment #2, replicates) was 107%, the activity at 0.3 µM (WI‐26 VA4 cells [3]; Homo sapiens, WI26VA4, read-out: CellTiter-Glo % of control, 300 nM, Experiment #1, replicates) was 109% and the activity at 0.3 µM (WI‐26 VA4 cells [3]; Homo sapiens, WI26VA4, read-out: CellTiter-Glo % of control, 300 nM, Experiment #2, replicates) was 102%. It also gave an activity at 1 µM (WI‐26 VA4 cells [3]; Homo sapiens, WI26VA4, read-out: CellTiter-Glo % of control, 1000 nM, Experiment #1, replicates) of 106%, an activity at 1 µM (WI‐26 VA4 cells [3]; Homo sapiens, WI26VA4, read-out: CellTiter-Glo % of control, 1000 nM, Experiment #2, replicates) of 105% and an activity at 3 µM (WI‐26 VA4 cells [3]; Homo sapiens, WI26VA4, read-out: CellTiter-Glo % of control, 3000 nM, Experiment #1, replicates) of 88.2%. It also gave an activity at 3 µM (WI‐26 VA4 cells [3]; Homo sapiens, WI26VA4, read-out: CellTiter-Glo % of control, 3000 nM, Experiment #2, replicates) of 90.3%, an activity at 10 µM (WI‐26 VA4 cells [3]; Homo sapiens, WI26VA4, read-out: CellTiter-Glo % of control, 10000 nM, Experiment #1, replicates) of 71.7% and an activity at 10 µM (WI‐26 VA4 cells [3]; Homo sapiens, WI26VA4, read-out: CellTiter-Glo % of control, 10000 nM, Experiment #2, replicates) of 92%. The activity at 30 µM (WI‐26 VA4 cells [3]; Homo sapiens, WI26VA4, read-out: CellTiter-Glo % of control, 30000 nM, Experiment #1, replicates) was 34.8%, the activity at 30 µM (WI‐26 VA4 cells [3]; Homo sapiens, WI26VA4, read-out: CellTiter-Glo % of control, 30000 nM, Experiment #2, replicates) was 38.4% and the activity at 100 µM (WI‐26 VA4 cells [3]; Homo sapiens, WI26VA4, read-out: CellTiter-Glo % of control, 100000 nM, Experiment #1, replicates) was 26.4%. It also gave an activity at 100 µM (WI‐26 VA4 cells [3]; Homo sapiens, WI26VA4, read-out: CellTiter-Glo % of control, 100000 nM, Experiment #2, replicates) of 20.9%, an activity at 0.01 µM (WI‐26 VA4 cells [3]; Homo sapiens, WI26VA4, read-out: CellTiter-Glo % of control, average, 10 nM, average) of 104% and an activity at 0.03 µM (WI‐26 VA4 cells [3]; Homo sapiens, WI26VA4, read-out: CellTiter-Glo % of control, average, 30 nM, average) of 104%. It also gave an activity at 0.1 µM (WI‐26 VA4 cells [3]; Homo sapiens, WI26VA4, read-out: CellTiter-Glo % of control, average, 100 nM, average) of 109%, an activity at 0.3 µM (WI‐26 VA4 cells [3]; Homo sapiens, WI26VA4, read-out: CellTiter-Glo % of control, average, 300 nM, average) of 108% and an activity at 1 µM (WI‐26 VA4 cells [3]; Homo sapiens, WI26VA4, read-out: CellTiter-Glo % of control, average, 1000 nM, average) of 102%. The activity at 3 µM (WI‐26 VA4 cells [3]; Homo sapiens, WI26VA4, read-out: CellTiter-Glo % of control, average, 3000 nM, average) was 84.7%, the activity at 10 µM (WI‐26 VA4 cells [3]; Homo sapiens, WI26VA4, read-out: CellTiter-Glo % of control, average, 10000 nM, average) was 77.5% and the activity at 30 µM (WI‐26 VA4 cells [3]; Homo sapiens, WI26VA4, read-out: CellTiter-Glo % of control, average, 30000 nM, average) was 34.6%. It also gave an activity at 100 µM (WI‐26 VA4 cells [3]; Homo sapiens, WI26VA4, read-out: CellTiter-Glo % of control, average, 100000 nM, average) of 22.4%, an activity at 300 µM (WI‐26 VA4 cells [3]; Homo sapiens, WI26VA4, read-out: CellTiter-Glo % of control, average, 300000 nM, average) of 1.88% and an activity at 1000 µM (WI‐26 VA4 cells [3]; Homo sapiens, WI26VA4, read-out: CellTiter-Glo % of control, average, 1000000 nM, average) of 0.11%. The “CellTiter-Glo LogIC50 (best-fit value)” value (WI‐26 VA4 cells [3]; [5]) was 4.308, the “TNT-luciferase % of control” value ([4]; 2000 nM, Experiment #1, replicates, 2 µM) was 107.63 % of control and 97.97 % of control and 101.55 % of control and the “TNT-luciferase % of control” value ([4]; 2000 nM, Experiment #2, replicates, 2 µM) was 104.64 % of control and 94.62 % of control and 88.50 % of control. For the same molecule, the “TNT-luciferase % of control, average” value ([4]; 2000 nM) was 99.15 % of control, the “TNT-luciferase % of control” value ([4]; 6000 nM, Experiment #1, replicates, 6 µM) was 101.91 % of control and 104.41 % of control and 119.43 % of control and the “TNT-luciferase % of control” value ([4]; 6000 nM, Experiment #2, replicates, 6 µM) was 96.85 % of control and 102.97 % of control and 104.64 % of control. The “TNT-luciferase % of control, average” value ([4]; 6000 nM) was 105.03 % of control, the “TNT-luciferase % of control” value ([4]; 20000 nM, Experiment #1, replicates, 20 µM) was 72.94 % of control (2×) and 59.71 % of control and the “TNT-luciferase % of control” value ([4]; 20000 nM, Experiment #2, replicates, 20 µM) was 84.60 % of control (2×) and 85.71 % of control. For the same molecule, the “TNT-luciferase % of control, average” value ([4]; 20000 nM) was 76.75 % of control, the “TNT-luciferase % of control” value ([4]; 60000 nM, Experiment #1, replicates, 60 µM) was 38.97 % of control and 46.84 % of control and 41.48 % of control and the “TNT-luciferase % of control” value ([4]; 60000 nM, Experiment #2, replicates, 60 µM) was 51.21 % of control and 53.71 % of control and 53.43 % of control. The “TNT-luciferase % of control, average” value ([4]; 60000 nM) was 47.61 % of control, the “TNT-luciferase % of control” value ([4]; 200000 nM, Experiment #1, replicates, 200 µM) was 1.16 % of control and 1.03 % of control and 1.24 % of control and the “TNT-luciferase % of control” value ([4]; 200000 nM, Experiment #2, replicates, 200 µM) was 6.68 % of control and 5.56 % of control and 5.68 % of control. The “TNT-luciferase % of control, average” value ([4]; 200000 nM) was 3.56 % of control, the “TNT-luciferase % of control” value ([4]; 600000 nM, Experiment #1, replicates, 600 µM) was 0.00561 % of control and 0.00168 % of control and 0.00107 % of control and the “TNT-luciferase % of control” value ([4]; 600000 nM, Experiment #2, replicates, 600 µM) was 0.24 % of control and 0.28 % of control and 0.27 % of control. The “TNT-luciferase % of control, average” value ([4]; 600000 nM) was 0.13 % of control, the “TNT-luciferase % of control” value ([4]; 2000000 nM, Experiment #1, replicates, 2000 µM) was 0.00107 % of control and -0.00501 % of control and -0.00597 % of control and the “TNT-luciferase % of control” value ([4]; 2000000 nM, Experiment #2, replicates, 2000 µM) was 0.0153 % of control and 0.00456 % of control and 0.00807 % of control. For the same molecule, the “TNT-luciferase % of control, average” value ([4]; 2000000 nM) was 0.00301 % of control, the “TNT-luciferase LogIC50 (best-fit value)” value [4, 5] was 4.702 and the IC50 ([4]; log(inhibitor) vs. response, variable slope (four parameters), unit from head concentration (nM), read-out: TNT-luciferase IC50 (best-fit value)) was 50300 nM.
